In ChEMBL document CHEMBL5236656, “The effect of diphenylethane side-chain substituents on dibenzocyclohexadiene formation and their inhibition of α-synuclein aggregation in vitro” (Bioorg Med Chem, 2023):

Experiments:
[1] = target: Alpha-synuclein (Homo sapiens) (UniProt P37840); experiment: Inhibition of alpha-Synuclein (unknown origin) aggregation assessed as aggregation by measuring ThT fluorescence at 100 uM incubated for 5 days by ThT fluorescence assay (reference value: 100%); set-up: scale not given: the % may be the effect or the level left; conditions: time 5.0 day
[2] = target: Alpha-synuclein (Homo sapiens) (UniProt P37840); experiment: Inhibition of alpha-Synuclein (unknown origin) aggregation assessed as aggregation by measuring ThT fluorescence at 500 uM incubated for 5 days by ThT fluorescence assay (reference value: 100%); set-up: scale not given: the % may be the effect or the level left; conditions: time 5.0 day

SMILES | Activity [1] | Activity [2]
C[C@@H]1Cc2cc(O)c(O)cc2-c2cc(O)c(O)cc2C[C@@H]1C | 28.6% | 13.6%
Oc1ccc(CCc2ccc(O)c(O)c2)cc1O | 35.6% | 8.1%
CC(c1ccc(O)c(O)c1)C(C)c1ccc(O)c(O)c1 (mixture of isomers) | 31.8% | 6.1%
Oc1cc2ccc3cc(O)c(O)cc3c2cc1O | 33.6% | 25.9%
Oc1cc2c(cc1O)-c1c(ccc(O)c1O)CC2 | 27.8% | 10.7%
CC(C)(c1ccc(O)c(O)c1)C(C)(C)c1ccc(O)c(O)c1 | 44.4% | 9.2%
Oc1cc2c(cc1O)-c1cc(O)c(O)cc1CC2 | 22.2% | 16.8%
CC1(C)c2cc(O)c(O)cc2-c2c(ccc(O)c2O)C1(C)C | 36.1% | 15.5%
CC1(C)c2cc(O)c(O)cc2-c2cc(O)c(O)cc2C1(C)C | 56.1% | 39.8%
CC1c2cc(O)c(O)cc2-c2c(ccc(O)c2O)C1C (configuration not stated) | 66.1% | 45.6%
Cc1c(C)c2cc(O)c(O)cc2c2cc(O)c(O)cc12 | 47.3% | 19.3%
